From patent US8691851B2, “Lanthanide metal complexes useful in treating cancer” (National University of Singapore, priority 2009, dated 2014)

Target: T1, pCMX-Gal-mPPARγ-LBD (Mus musculus, UniProt P37238)
T1 construct: expressed in transfected cells; host or cells: SHEP-1 cells
T1 sequence (P37238 238-503 limits assumed): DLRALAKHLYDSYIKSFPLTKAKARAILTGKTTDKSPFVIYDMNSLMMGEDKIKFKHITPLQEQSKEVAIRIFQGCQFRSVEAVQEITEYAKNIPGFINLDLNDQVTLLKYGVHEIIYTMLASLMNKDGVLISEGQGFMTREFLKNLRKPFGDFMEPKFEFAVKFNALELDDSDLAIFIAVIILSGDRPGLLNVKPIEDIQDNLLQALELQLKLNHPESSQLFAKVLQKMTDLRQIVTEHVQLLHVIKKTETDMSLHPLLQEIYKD
Assay: Gal4 chimeric receptor luciferase reporter (Method 2)
Format: cell-based
Conditions: SHEP-1 cells, 3 μM, 5 μM, 10 μM and 20 μM
From the text: In Method 2, SHEP-1 cancer cells were transfected with a reporter gene containing four copies of a Gal4 binding site (pMH100x4-TK-Luc) and chimeric receptors of a single PPAR isoform (pCMX-Gal-mPPARα-LBD, pCMX-Gal-mPPARδ-LBD, or pCMX-Gal-mPPARγ-LBD, respectively) as previously described in Kim et al, Toxicological Sciences, 85, (2005), pp. 585-593. When C19H24N3O5S5Pr binds to the ligand binding domain (LBD) of the chimeric receptor, the DNA binding domain of Gal4 binds to co-transfected Gal4 binding site and initiates transcription of the firefly luciferase.

CS(C)=O.CS(C)=O.[O-][n+]1ccccc1[S-].[O-][n+]1ccccc1[S-].[O-][n+]1ccccc1[S-].[Pr+3] [C19H24N3O5S5Pr, praseodymium (2-mercaptopyridine N-oxide)(dimethylsulfoxide)]
luciferase activity, PPARγ LBD chimeric receptor: induction of luciferase activity
